Results reported in PubChem BioAssay AID328 (DTP/NCI, 2004).
Several values for one entry are separate records, joined by “and”; a condition that tells them apart may be missing. Equal entries are not always repeated. Inconclusive results and toxic doses are left out.

System: BDF1 mice, P388 leukemia ip, median survival T/C
Assay: NCI In Vivo Anticancer Drug Screen. Data for tumor model P388 Leukemia (intraperitoneal) in B6D2F1 (BDF1) mice
Conditions: endpoint: median survival time, higher = longer survival
How it was run: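 Vehicle-dosed animals serve as the reference; survival of compound-dosed, tumour-implanted mice is divided by it.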

[1] = dose: 50.0 mg/kg/injection, schedule: Q01DX009 (ip), vehicle: saline
[2] = dose: 100.0 mg/kg/injection, schedule: Q01DX009 (ip), vehicle: saline
[3] = dose: 200.0 mg/kg/injection, schedule: Q01DX009 (ip), vehicle: saline
[4] = dose: 50.0 mg/kg/injection, schedule: Q01DX009 (ip), vehicle: saline with Tween-80
[5] = dose: 100.0 mg/kg/injection, schedule: Q01DX009 (ip), vehicle: saline with Tween-80
[6] = dose: 200.0 mg/kg/injection, schedule: Q01DX009 (ip), vehicle: saline with Tween-80
[7] = dose: 400.0 mg/kg/injection, schedule: Q01DX009 (ip), vehicle: saline with Tween-80
[8] = dose: 100.0 mg/kg/injection, schedule: Q04DX003 (ip), vehicle: saline
[9] = dose: 200.0 mg/kg/injection, schedule: Q04DX003 (ip), vehicle: saline
[10] = dose: 100.0 mg/kg/injection, schedule: Q01DX001 (ip), vehicle: Klucel (hydroxypropylcellulose) (HPC)
[11] = dose: 100.0 mg/kg/injection, schedule: Q04DX003 (ip), vehicle: Klucel (hydroxypropylcellulose) (HPC)
[12] = dose: 200.0 mg/kg/injection, schedule: Q04DX003 (ip), vehicle: Klucel (hydroxypropylcellulose) (HPC)
[13] = dose: 12.5 mg/kg/injection, schedule: Q01DX009 (ip), vehicle: saline with Tween-80

With `CCO/C=C1\SC(=S)N(c2ccccc2C)C1=O` the T/C (dose: 8.8 mg/kg/injection, schedule: Q04DX003 (ip), vehicle: saline with Tween-80) was 100 % of control, the T/C (dose: 13.2 mg/kg/injection, schedule: Q04DX003 (ip), vehicle: saline with Tween-80) was 104 % of control and the T/C (dose: 20.0 mg/kg/injection, schedule: Q04DX003 (ip), vehicle: saline with Tween-80) was 100 % of control. For the same molecule, the T/C (dose: 25.0 mg/kg/injection, schedule: Q01DX009 (ip), vehicle: Klucel (hydroxypropylcellulose) (HPC)) was 101 % of control, the T/C (dose: 30.0 mg/kg/injection, schedule: Q04DX003 (ip), vehicle: saline with Tween-80) was 104 % of control and the T/C (dose: 88.0 mg/kg/injection, schedule: Q04DX003 (ip), vehicle: saline with Tween-80) was 122 % of control. The T/C (dose: 300.0 mg/kg/injection, schedule: Q04DX003 (ip), vehicle: saline with Tween-80) was 163 % of control.

For `COC(=O)c1cc(=O)nc(NN=C2CCCCC2)s1`, the T/C (dose: 50.0 mg/kg/injection, schedule: Q01DX005 (ip), vehicle: saline with Tween-80) was 99 % of control and the T/C (dose: 100.0 mg/kg/injection, schedule: Q01DX005 (ip), vehicle: saline with Tween-80) was 103 % of control.

`O=C(O)C1=NNC(C(=O)O)=NN1` was tested, and the T/C [1] was 98 % of control, the T/C [2] was 100 % of control and the T/C [3] was 98 % of control.

`C1CCN(NC2=NCCO2)CC1` was tested, and the T/C (dose: 12.5 mg/kg/injection, schedule: Q01DX009 (ip), vehicle: saline) was 95 % of control, the T/C (dose: 25.0 mg/kg/injection, schedule: Q01DX009 (ip), vehicle: saline) was 108 % of control and the T/C [1] was 100 % of control.

For `N#CCCN(C(=S)Nc1ccc(Cl)c(Cl)c1)C1CCCCC1`, the T/C [4] was 98 % of control and 117 % of control, the T/C [5] was 100 % of control and 119 % of control and the T/C [6] was 103 % of control and 119 % of control. The T/C [7] was 106 % of control.

With `N#CCN1CCOCC1` the T/C (dose: 75.0 mg/kg/injection, schedule: Q01DX009 (ip), vehicle: saline) was 104 % of control, the T/C [8] was 104 % of control and the T/C (dose: 150.0 mg/kg/injection, schedule: Q01DX009 (ip), vehicle: saline) was 95 % of control. The T/C [9] was 104 % of control.

With `COc1cc(O)c2c(c1)C(=O)c1cc3c(c(O)c1C2=O)C(OC1OC(C)C(OC)C(O)C1OC)C(OC)C(C)(O)C3=O` (configuration not stated) the T/C (dose: 17.5 mg/kg/injection, schedule: Q01DX009 (ip), vehicle: saline) was 86 % of control, the T/C (dose: 35.0 mg/kg/injection, schedule: Q01DX009 (ip), vehicle: saline) was 93 % of control and the T/C [4] was 97 % of control. The T/C (dose: 70.0 mg/kg/injection, schedule: Q01DX009 (ip), vehicle: saline) was 93 % of control, the T/C [5] was 120 % of control and the T/C [6] was 116 % of control.

`c1ccc(Nc2ccc(Nc3ccccc3)cc2)cc1` was tested, and the T/C (dose: 50.0 mg/kg/injection, schedule: Q04DX003 (ip), vehicle: Klucel (hydroxypropylcellulose) (HPC)) was 118 % of control, the T/C [10] was 90 % of control and the T/C [11] was 104 % of control. The T/C (dose: 200.0 mg/kg/injection, schedule: Q01DX001 (ip), vehicle: Klucel (hydroxypropylcellulose) (HPC)) was 100 % of control, the T/C [12] was 104 % of control and the T/C (dose: 400.0 mg/kg/injection, schedule: Q01DX001 (ip), vehicle: Klucel (hydroxypropylcellulose) (HPC)) was 90 % of control.

`CCC(O)(c1ccc(OC)cc1)C(c1ccccc1)c1ccccn1` (configuration not stated) was tested, and the T/C (dose: 31.25 mg/kg/injection, schedule: Q01DX009 (ip), vehicle: saline with Tween-80) was 103 % of control, the T/C (dose: 62.5 mg/kg/injection, schedule: Q01DX009 (ip), vehicle: saline with Tween-80) was 103 % of control and the T/C (dose: 125.0 mg/kg/injection, schedule: Q01DX009 (ip), vehicle: saline with Tween-80) was 100 % of control.

With `O=C(C=C(C(F)(F)F)C(F)(F)F)c1cc(Cl)ccc1Cl` the T/C (dose: 3.12 mg/kg/injection, schedule: Q01DX009 (ip), vehicle: saline with Tween-80) was 95 % of control, the T/C (dose: 6.25 mg/kg/injection, schedule: Q01DX009 (ip), vehicle: saline with Tween-80) was 95 % of control and the T/C (dose: 7.0 mg/kg/injection, schedule: Q04DX003 (ip), vehicle: saline with Tween-80) was 112 % of control. For the same molecule, the T/C (dose: 11.0 mg/kg/injection, schedule: Q04DX003 (ip), vehicle: saline with Tween-80) was 120 % of control, the T/C [13] was 103 % of control and 108 % of control and the T/C (dose: 12.5 mg/kg/injection, schedule: Q04DX003 (ip), vehicle: saline with Tween-80) was 115 % of control. The T/C (dose: 16.5 mg/kg/injection, schedule: Q04DX003 (ip), vehicle: saline with Tween-80) was 120 % of control, the T/C (dose: 25.0 mg/kg/injection, schedule: Q04DX003 (ip), vehicle: saline with Tween-80) was 113 % of control and the T/C (dose: 37.5 mg/kg/injection, schedule: Q04DX003 (ip), vehicle: saline with Tween-80) was 121 % of control.

In the case of `CC1(C)OCC(C2OC3OC(C)(C)OC3C2OP(=O)(N2CC2)N2CC2)O1` (configuration not stated), the T/C [4] is reported as 103 % of control, the T/C [5] is reported as 115 % of control and the T/C [6] is reported as 123 % of control.

For `CCNC1=C(N2CC2)C(=O)C(NCC)=C(N2CC2)C1=O`, the T/C (dose: 0.37 mg/kg/injection, schedule: Q01DX009 (ip), vehicle: saline) was 156 % of control and 175 % of control, the T/C (dose: 0.75 mg/kg/injection, schedule: Q01DX009 (ip), vehicle: saline) was 193 % of control and 203 % of control and the T/C (dose: 1.5 mg/kg/injection, schedule: Q01DX009 (ip), vehicle: saline) was 228 % of control and 178 % of control.

For `O=C(Cn1cc(F)c(=O)[nH]c1=O)N1CCC2(CC1)SSC1(CCN(C(=O)Cn3cc(F)c(=O)[nH]c3=O)CC1)S2`, the T/C [2] was 90 % of control, the T/C [8] was 104 % of control and the T/C [3] was 95 % of control. The T/C [9] was 95 % of control and the T/C (dose: 400.0 mg/kg/injection, schedule: Q04DX003 (ip), vehicle: saline) was 104 % of control.

With `S=c1[nH]nc(NC2CCCCC2)s1` the T/C (dose: 25.0 mg/kg/injection, schedule: Q01DX001 (ip), vehicle: Klucel (hydroxypropylcellulose) (HPC)) was 100 % of control, the T/C (dose: 50.0 mg/kg/injection, schedule: Q01DX001 (ip), vehicle: Klucel (hydroxypropylcellulose) (HPC)) was 112 % of control and the T/C [10] was 87 % of control.

For `Cc1cc(Cl)ccc1NC(=O)c1ccccc1C(=O)O`, the T/C [11] was 91 % of control, the T/C [12] was 91 % of control and the T/C (dose: 400.0 mg/kg/injection, schedule: Q04DX003 (ip), vehicle: Klucel (hydroxypropylcellulose) (HPC)) was 87 % of control.

For `Oc1ccc(Nc2c3ccccc3nc3c2ccc2ccccc23)cc1CN(CCCl)CCCl`, the T/C (dose: 0.08 mg/kg/injection, schedule: Q01DX009 (ip), vehicle: saline) was 100 % of control, the T/C (dose: 0.12 mg/kg/injection, schedule: Q01DX009 (ip), vehicle: saline) was 90 % of control and the T/C (dose: 0.51 mg/kg/injection, schedule: Q01DX009 (ip), vehicle: saline) was 168 % of control. For the same molecule, the T/C (dose: 0.52 mg/kg/injection, schedule: Q01DX009 (ip), vehicle: saline) was 110 % of control, the T/C (dose: 1.02 mg/kg/injection, schedule: Q01DX009 (ip), vehicle: saline) was 100 % of control and the T/C (dose: 1.1 mg/kg/injection, schedule: Q01DX009 (ip), vehicle: saline) was 163 % of control. The T/C (dose: 1.17 mg/kg/injection, schedule: Q01DX009 (ip), vehicle: saline) was 100 % of control, the T/C (dose: 1.56 mg/kg/injection, schedule: Q01DX009 (ip), vehicle: saline) was 109 % of control and the T/C (dose: 1.65 mg/kg/injection, schedule: Q04DX003 (ip), vehicle: saline) was 159 % of control. The T/C (dose: 2.1 mg/kg/injection, schedule: Q04DX003 (ip), vehicle: saline) was 100 % of control and the T/C (dose: 2.34 mg/kg/injection, schedule: Q01DX009 (ip), vehicle: saline) was 168 % of control.

With `COc1ccc(OC)c2c(/C=C/c3ccc(N(C)C)cc3)ccnc12` the T/C [13] was 108 % of control, the T/C (dose: 25.0 mg/kg/injection, schedule: Q01DX009 (ip), vehicle: saline with Tween-80) was 103 % of control and the T/C [4] was 94 % of control and 110 % of control. The T/C [5] was 103 % of control and the T/C [6] was 91 % of control.

In the case of `O=c1[nH]c(=O)n(CCc2cccs2)cc1F`, the T/C [4] is reported as 106 % of control, the T/C [5] is reported as 101 % of control and the T/C (dose: 100.0 mg/kg/injection, schedule: Q04DX003 (ip), vehicle: saline with Tween-80) is reported as 94 % of control. For the same molecule, the T/C [6] was 108 % of control, the T/C (dose: 200.0 mg/kg/injection, schedule: Q04DX003 (ip), vehicle: saline with Tween-80) was 108 % of control and the T/C [7] was 90 % of control. The T/C (dose: 400.0 mg/kg/injection, schedule: Q04DX003 (ip), vehicle: saline with Tween-80) was 92 % of control.
